{"source": "paper PMC11261611", "about": "“Tongue-on-a-Chip: Parallel Recording of Sweet and Bitter Receptor Responses to Sequential Injections of Pure and Mixed Sweeteners” (Journal of Agricultural and Food Chemistry, 2024)", "key": {"[1]": {"molecular_target": "T1, sweet taste receptor TAS1R2/R3 (TAS1R2) (Homo sapiens, UniProt Q7RTX0+Q8TE23)", "T1 construct": "with TAS1R3", "T1 sequence (Q8TE23 20-839)": "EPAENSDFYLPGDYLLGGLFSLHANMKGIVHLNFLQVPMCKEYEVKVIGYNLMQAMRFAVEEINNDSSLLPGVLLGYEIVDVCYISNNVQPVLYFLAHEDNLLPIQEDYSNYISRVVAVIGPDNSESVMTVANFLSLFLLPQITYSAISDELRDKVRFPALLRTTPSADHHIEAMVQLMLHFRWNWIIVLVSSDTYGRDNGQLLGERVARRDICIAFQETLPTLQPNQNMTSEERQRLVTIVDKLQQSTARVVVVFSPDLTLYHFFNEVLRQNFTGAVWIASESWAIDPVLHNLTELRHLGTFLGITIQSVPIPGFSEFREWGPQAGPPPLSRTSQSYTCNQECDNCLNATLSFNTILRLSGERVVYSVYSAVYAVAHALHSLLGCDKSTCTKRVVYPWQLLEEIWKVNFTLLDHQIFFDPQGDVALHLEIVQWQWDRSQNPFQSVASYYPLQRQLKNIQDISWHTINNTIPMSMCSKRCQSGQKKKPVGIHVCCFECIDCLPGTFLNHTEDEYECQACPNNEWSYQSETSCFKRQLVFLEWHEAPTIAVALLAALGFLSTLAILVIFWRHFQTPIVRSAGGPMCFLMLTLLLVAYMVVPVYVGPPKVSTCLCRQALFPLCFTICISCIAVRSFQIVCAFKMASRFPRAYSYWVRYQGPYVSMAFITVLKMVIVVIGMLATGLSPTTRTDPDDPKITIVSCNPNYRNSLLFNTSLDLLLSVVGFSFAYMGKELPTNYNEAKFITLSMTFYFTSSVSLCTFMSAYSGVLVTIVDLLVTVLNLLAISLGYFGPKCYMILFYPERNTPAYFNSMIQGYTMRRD", "T1 sequence (Q7RTX0 21-852)": "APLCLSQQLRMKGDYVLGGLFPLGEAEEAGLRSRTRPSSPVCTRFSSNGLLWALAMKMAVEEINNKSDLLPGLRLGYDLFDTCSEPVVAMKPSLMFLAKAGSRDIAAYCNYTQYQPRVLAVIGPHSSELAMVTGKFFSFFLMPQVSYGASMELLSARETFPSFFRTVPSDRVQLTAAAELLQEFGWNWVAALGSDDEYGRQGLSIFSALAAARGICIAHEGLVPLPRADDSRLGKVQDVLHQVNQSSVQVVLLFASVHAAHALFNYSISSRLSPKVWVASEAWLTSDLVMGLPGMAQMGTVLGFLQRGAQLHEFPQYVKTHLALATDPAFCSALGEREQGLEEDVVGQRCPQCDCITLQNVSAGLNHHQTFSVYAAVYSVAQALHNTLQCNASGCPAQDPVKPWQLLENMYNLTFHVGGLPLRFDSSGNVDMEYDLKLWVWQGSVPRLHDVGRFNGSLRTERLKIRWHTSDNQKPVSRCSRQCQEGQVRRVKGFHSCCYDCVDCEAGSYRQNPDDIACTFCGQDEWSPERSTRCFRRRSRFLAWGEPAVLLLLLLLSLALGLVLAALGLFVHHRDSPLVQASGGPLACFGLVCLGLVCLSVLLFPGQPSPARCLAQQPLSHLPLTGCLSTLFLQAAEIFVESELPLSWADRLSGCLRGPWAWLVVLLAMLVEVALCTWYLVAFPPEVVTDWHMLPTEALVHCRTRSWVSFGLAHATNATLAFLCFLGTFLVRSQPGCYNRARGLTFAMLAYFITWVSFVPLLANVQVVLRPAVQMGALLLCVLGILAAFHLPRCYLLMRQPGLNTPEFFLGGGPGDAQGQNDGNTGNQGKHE", "test": "calcium (Twitch2B FRET) response in reverse-transfected HEK293-Gα[…]GUST44 receptor array, flow cell", "type": "cell-based"}, "TAS2R43": {"molecular_target": "T2, TAS2R43 (Homo sapiens, UniProt P59537)", "T2 sequence (P59537 1-309)": "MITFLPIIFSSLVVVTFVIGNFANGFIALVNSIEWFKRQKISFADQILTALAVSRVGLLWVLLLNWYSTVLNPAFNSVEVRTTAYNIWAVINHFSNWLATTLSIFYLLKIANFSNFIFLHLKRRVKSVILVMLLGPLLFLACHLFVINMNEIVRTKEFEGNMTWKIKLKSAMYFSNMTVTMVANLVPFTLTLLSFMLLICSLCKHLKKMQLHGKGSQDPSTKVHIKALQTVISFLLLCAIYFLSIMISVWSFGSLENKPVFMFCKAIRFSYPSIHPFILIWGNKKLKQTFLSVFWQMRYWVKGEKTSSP", "details": "hek293 cells"}, "TAS2R8": {"molecular_target": "T3, TAS2R8 (Homo sapiens, UniProt Q9NYW2)", "T3 sequence (Q9NYW2 1-309)": "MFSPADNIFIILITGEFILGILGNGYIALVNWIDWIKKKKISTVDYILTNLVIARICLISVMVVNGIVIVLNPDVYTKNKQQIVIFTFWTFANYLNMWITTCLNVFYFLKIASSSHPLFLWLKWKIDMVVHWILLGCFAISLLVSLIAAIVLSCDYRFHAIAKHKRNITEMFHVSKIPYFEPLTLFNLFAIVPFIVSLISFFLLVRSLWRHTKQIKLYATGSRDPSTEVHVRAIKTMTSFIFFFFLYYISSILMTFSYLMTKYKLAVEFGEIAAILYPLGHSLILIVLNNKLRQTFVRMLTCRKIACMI", "details": "hek293 cells"}, "TAS2R31": {"molecular_target": "TAS2R31 (Homo sapiens, UniProt P59538)", "sequence (P59538 whole entry)": "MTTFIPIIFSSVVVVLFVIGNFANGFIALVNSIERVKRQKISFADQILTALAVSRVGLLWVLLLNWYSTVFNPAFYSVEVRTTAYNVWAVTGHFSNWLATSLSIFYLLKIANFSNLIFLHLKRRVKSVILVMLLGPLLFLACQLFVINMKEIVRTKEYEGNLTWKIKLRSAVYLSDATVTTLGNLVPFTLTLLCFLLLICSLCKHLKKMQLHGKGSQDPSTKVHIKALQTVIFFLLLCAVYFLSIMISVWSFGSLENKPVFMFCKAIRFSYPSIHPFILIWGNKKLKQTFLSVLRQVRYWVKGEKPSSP", "details": "hek293 cells"}, "[2]": {"molecular_target": "T1, sweet taste receptor TAS1R2/R3 (TAS1R2)", "test": "calcium (Twitch2B FRET) response in reverse-transfected HEK293-Gα[…]GUST44 receptor array, normalized against umami receptor signal", "type": "cell-based"}}, "note": "Where a SMILES comes first, the peptide text is derived from it.", "data": [{"smiles": "COC(=O)[C@H](Cc1ccccc1)NC(=O)[C@H](CC(=O)O)NCCCc1ccc(OC)c(O)c1", "note": "[advantame]", "values": [{"measurement": "EC50", "setting": "[1]", "result": "~1.5", "unit": "µM"}]}, {"smiles": "COC(=O)[C@H](Cc1ccccc1)NC(=O)[C@@H](N)CC(=O)O", "note": "[aspartame] (H-Asp-Phe-OMe)", "values": [{"measurement": "EC50", "setting": "[1]", "result": 625, "unit": "µM"}]}, {"smiles": "O=S(=O)(O)NC1CCCCC1", "note": "[cyclamate]", "values": [{"measurement": "% signal reduction", "setting": "TAS2R43", "result": 92, "unit": "% signal reduction"}, {"measurement": "% signal reduction", "setting": "TAS2R8", "result": 33, "unit": "% signal reduction"}, {"measurement": "% signal reduction", "setting": "TAS2R31", "result": 48, "unit": "% signal reduction"}]}, {"smiles": "OC[C@H]1O[C@@](CO)(O[C@H]2O[C@H](CO)[C@@H](O)[C@H](O)[C@H]2O)[C@@H](O)[C@@H]1O", "note": "[sucrose]", "values": [{"measurement": "EC50", "setting": "[2]", "result": 35000, "unit": "µM"}]}]}
